From ChEMBL document CHEMBL1201862, “PubChem BioAssay data set” (2004)
Calls of active or inactive are those of the source.

What was measured:
[1] = biological target: FAD-linked sulfhydryl oxidase ALR (Homo sapiens, UniProt P55789); test: ALR-catalysed DTT oxidation blockers – biochemical, H2O2 detection, luminescence, cherry-pick, dose response (AID 493248)
[2] = biological target: T1, Calpain-2 catalytic subunit (Sus scrofa, UniProt P43367); test: m-calpain protease blockers, concentration series – biochemical, fluorogenic peptide substrate, dose response (AID 1420); type: functional
T1 sequence (P43367 whole entry): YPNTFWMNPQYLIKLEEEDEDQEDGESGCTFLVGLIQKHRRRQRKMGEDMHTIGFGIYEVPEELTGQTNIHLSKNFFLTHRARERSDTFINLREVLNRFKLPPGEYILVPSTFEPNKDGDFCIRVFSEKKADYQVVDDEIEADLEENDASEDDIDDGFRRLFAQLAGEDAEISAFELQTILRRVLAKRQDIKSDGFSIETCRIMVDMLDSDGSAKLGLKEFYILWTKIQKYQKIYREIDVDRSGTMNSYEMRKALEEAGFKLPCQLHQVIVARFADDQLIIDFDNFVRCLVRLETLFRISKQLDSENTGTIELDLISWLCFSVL

[3] = biological target: T2, Heat shock factor protein 1 (Mus musculus, UniProt P38532); test: decrease of HSF1-responsive luciferase luminescence – cell-based, NIH3T3, dose retest, confirmation (AID 2382); type: functional;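 further: NIH3T3 fibroblasts with HSF1-driven luciferase reporter stressed by proteasome inhibitor MG132; luminescence from HSF1-driven luciferase expression after 8 hours of MG132 stress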
T2 sequence (P38532 whole entry): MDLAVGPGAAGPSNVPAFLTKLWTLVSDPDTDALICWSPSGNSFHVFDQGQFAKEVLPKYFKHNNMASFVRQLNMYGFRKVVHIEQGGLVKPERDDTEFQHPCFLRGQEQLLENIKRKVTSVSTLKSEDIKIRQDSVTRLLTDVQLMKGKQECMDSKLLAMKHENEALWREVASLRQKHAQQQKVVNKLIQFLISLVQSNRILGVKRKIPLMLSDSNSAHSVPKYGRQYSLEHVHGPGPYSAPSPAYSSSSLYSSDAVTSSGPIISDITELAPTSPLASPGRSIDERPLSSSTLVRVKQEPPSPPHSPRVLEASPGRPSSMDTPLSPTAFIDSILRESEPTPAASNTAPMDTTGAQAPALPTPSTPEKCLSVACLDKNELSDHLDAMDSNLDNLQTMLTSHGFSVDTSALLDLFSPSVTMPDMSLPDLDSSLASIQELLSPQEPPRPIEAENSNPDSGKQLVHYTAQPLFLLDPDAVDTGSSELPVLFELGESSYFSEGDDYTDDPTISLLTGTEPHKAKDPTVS

[4] = NIH3T3 cell viability loss – ATP luminescence, mouse fibroblasts, counter-screen, dose response (AID 2010); type: functional, cell-based;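 further: cells exposed to compound for about 90 hours before reading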
[5] = microbe, parasite or virus in culture; type: functional; details: Mycobacterium tuberculosis
[6] = Trypanosoma cruzi growth suppression in host cells – NIH3T3 host cells, beta-gal luminescence, confirmation (AID 2044); type: functional, cell-based;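 further: intracellular parasites grown in NIH/3T3 mouse fibroblasts as host cells; luminescent beta-galactosidase reporter signal from transgenic T. cruzi replicating inside host cells; inhibitors lower the luminescence signal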
[7] = biological target: Luciferin 4-monooxygenase (Photinus pyralis, UniProt P08659); test: inhibition of purified Photinus pyralis luciferase – biochemical, luminescence, dose response (AID 1891)
Luciferin 4-monooxygenase, sequence (P08659 whole entry): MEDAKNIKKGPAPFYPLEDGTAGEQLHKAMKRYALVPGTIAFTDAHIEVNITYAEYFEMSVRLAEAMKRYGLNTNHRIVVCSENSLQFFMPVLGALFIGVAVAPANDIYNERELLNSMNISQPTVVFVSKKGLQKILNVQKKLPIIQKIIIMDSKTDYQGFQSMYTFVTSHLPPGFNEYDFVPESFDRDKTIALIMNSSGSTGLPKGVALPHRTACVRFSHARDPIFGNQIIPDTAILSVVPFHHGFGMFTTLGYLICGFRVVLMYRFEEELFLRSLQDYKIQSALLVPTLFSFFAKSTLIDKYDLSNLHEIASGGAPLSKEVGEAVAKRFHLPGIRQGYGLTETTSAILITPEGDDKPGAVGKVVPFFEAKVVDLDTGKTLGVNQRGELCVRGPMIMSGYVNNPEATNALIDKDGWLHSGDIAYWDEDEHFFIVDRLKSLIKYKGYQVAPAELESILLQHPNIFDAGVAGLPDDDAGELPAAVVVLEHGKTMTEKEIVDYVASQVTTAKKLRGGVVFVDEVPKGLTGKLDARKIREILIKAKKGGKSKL

[8] = Luminescence Cell-Based Dose Confirmation HTS to Identify Inhibitors of Platelet Dense Granule Release. [Related pubchem assays: 1663 (Primary HTS), 1678 (Summary of Project)]; type: functional
[9] = biological target: Cytochrome P450 2C9 (Homo sapiens, UniProt P11712)
Cytochrome P450 2C9, sequence (P11712 whole entry): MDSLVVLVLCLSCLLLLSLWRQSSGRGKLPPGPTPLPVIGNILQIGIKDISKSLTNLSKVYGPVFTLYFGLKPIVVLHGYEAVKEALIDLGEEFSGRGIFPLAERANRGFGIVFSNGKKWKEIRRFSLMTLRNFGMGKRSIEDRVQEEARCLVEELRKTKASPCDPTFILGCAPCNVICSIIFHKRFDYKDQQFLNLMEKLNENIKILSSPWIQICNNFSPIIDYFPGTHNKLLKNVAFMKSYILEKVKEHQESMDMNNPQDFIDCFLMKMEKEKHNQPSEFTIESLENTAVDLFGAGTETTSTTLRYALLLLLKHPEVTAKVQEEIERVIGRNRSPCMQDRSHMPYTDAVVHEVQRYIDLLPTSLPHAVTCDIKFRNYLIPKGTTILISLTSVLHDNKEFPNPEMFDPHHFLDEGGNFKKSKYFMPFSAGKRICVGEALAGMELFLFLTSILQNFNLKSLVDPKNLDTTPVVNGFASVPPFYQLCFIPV

[10] = loss of viability in HepG2 cells – cell-based, CellTiter-Glo, cherry-picked, cytotoxicity control for Shn3 inhibitor project, dose response (AID 624134); type: functional
[11] = non-specific 3'UTR reporter inhibition in Clone20-Shn3RL – cell-based, Renilla luciferase, cherry-picked, counter-screen for Shn3 inhibitor project, dose response (AID 624133); type: functional
[12] = reduction of Shn3 3'UTR-driven luciferase in osteoblasts – cell-based, Clone20 osteoblasts, firefly luciferase, cherry-picked, dose response (AID 624132); type: functional;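 further: firefly luciferase luminescence from reporter carrying the Shn3 3'UTR in osteoblasts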
[13] = biological target: Genome polyprotein (dengue virus type 2, UniProt P29990); test: flavivirus cap methylation enzyme inhibition – biochemical, confirmation dose response, primary screen (AID 588689); type: functional
Genome polyprotein, sequence (P29990 2492-3391 limits assumed): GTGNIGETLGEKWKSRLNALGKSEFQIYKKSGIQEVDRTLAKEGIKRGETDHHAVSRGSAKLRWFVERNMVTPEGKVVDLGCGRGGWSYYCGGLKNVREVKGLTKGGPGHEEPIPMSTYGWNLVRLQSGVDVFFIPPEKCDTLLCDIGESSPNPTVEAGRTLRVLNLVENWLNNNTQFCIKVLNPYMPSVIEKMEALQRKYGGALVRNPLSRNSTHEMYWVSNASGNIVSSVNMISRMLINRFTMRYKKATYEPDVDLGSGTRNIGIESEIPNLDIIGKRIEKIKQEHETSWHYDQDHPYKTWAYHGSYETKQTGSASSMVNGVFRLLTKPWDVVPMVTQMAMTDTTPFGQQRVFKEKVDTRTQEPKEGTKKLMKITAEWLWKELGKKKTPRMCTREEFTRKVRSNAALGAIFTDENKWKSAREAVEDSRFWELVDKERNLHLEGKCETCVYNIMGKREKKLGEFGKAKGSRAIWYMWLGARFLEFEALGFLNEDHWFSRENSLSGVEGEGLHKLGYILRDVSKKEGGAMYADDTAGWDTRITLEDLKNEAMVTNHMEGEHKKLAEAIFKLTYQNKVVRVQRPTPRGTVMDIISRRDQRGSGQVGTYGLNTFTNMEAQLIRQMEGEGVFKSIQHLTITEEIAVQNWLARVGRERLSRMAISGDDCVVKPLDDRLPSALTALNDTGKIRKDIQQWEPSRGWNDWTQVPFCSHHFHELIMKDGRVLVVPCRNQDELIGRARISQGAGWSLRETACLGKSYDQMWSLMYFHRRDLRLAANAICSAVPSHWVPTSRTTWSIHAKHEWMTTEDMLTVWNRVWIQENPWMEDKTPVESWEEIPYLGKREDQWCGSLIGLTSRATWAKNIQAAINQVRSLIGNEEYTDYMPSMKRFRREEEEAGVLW

[14] = DRD fibroblast viability loss – cell-based, non-viral oncogenic, luminescence, dose response (AID 1934); type: functional; details: Homo sapiens
[15] = tested on: BJ; test: BJ-TERT fibroblast viability loss – cell-based, RAS-independent, luminescence, dose response (AID 1933); type: functional; details: Homo sapiens
[16] = tested on: BJ; test: cells; type: functional, cell-based; details: Homo sapiens
[17] = tested on: BJ; test: BJ-TERT-LT-ST fibroblast viability loss – cell-based, RAS-independent, luminescence, dose response (AID 1935); type: functional; details: Homo sapiens;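 further: BJ fibroblasts immortalized with TERT plus LT and ST oncogenes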
[18] = alpha-synuclein stem-loop luciferase translation blockers – H4 neuroglioma cells, luminescence, confirmation (AID 1988); type: functional, cell-based
[19] = biological target: T3, Protein skinhead-1 (Caenorhabditis elegans, UniProt P34707); type: functional
T3 sequence (P34707 whole entry): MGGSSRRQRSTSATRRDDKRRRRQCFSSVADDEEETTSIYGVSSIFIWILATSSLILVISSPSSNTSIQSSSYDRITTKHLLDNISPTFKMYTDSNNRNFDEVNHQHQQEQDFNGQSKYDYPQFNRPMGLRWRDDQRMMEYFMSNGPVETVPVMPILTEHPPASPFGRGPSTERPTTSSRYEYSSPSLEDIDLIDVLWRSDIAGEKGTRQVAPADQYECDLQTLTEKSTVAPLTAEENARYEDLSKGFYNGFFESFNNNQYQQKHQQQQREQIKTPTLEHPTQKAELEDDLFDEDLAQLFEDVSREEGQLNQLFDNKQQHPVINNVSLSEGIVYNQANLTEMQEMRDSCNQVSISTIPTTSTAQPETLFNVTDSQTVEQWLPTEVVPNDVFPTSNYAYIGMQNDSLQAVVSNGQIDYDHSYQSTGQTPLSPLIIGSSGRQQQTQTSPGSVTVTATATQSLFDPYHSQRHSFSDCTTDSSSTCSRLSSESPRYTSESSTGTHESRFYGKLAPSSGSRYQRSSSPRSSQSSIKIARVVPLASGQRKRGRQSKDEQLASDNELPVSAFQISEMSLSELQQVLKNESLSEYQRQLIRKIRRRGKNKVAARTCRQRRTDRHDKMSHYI

[20] = Luminescence Cell-Based Dose Response HTS to Identify Inhibitors of 5'UTR Stem-Loop Driven Prion Protein mRNA Translation in H4 Neuroglioblastoma Cells. [Related pubchem assays: 1827 (Project Summary), 1813 (Primary HTS)]; type: functional
[21] = tested on: HEK293; test: EBV LMP1 TES2 canonical NF-kB signalling blockers – cell-based, HEK293, luciferase, cherry-pick, dose response (AID 588343); type: functional; details: Homo sapiens
[22] = tested on: H4; test: Luminescence Cell-Based Dose Response HTS to Identify Activators of 5'UTR Stem-Loop Driven Prion Protein mRNA Translation in H4 Neuroglioblastoma Cells. [Related pubchem assays: 1829 (Project Summary), 1814 (Primary HTS)]; type: functional; details: Homo sapiens
[23] = Luminescence Cell-Based Dose Response HTS to Identify Activators of Luciferase Translation or Activity in H4 […] Cells. [Related pubchem assays: 1829 (Project Summary), 1814 (Primary HTS)]; type: functional
[24] = luciferase reporter signal suppression in cells – H4 neuroglioma cells, luminescence, dose response (AID 1990); type: functional, cell-based

FAD-linked sulfhydryl oxidase ALR, sequence (P55789 whole entry): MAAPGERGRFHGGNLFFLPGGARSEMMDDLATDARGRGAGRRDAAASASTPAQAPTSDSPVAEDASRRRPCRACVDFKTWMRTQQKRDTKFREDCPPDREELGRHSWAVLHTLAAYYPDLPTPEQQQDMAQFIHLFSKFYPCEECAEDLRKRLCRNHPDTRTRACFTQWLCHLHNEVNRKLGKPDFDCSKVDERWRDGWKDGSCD

Cc1cc(C)cc(-n2ncc3c2CCCC3NC(=O)c2cc(C)n(C)n2)c1 (configuration not stated)
AC50 [1]: 4.51 µM (active)

CCCN(C#N)c1nc(NCC)nc(NC(C)C)n1
IC50 [2]: > 50 µM (not active)

CCN(CCCNC(=O)CCn1c(=O)[nH]c2ccsc2c1=O)c1ccccc1
IC50 [2]: < 0.4 µM (not active)
EC50 [3]: > 195 µM (not active)

Cc1cc([N+](=O)[O-])nn1CCCC(=O)Nc1cc(Oc2ccccc2)cc([N+](=O)[O-])c1
IC50 [2]: 5.32 µM (not active)

CC(C)c1ccc(NC(=O)Cc2c(C(=O)O)n(C)c3ccccc23)cc1
AC50 [1]: 6.73 µM (active)

CCOc1ccc(-c2cnc(NCc3cccc4ccccc34)n2CCOC)cc1
EC50 [4]: > 60 µM (not active)
CC50 [5]: 12.2 µM (active)
EC50 [6]: 0.979 µM (active)
EC50 [3]: > 195 µM (not active)

Cc1ccc(N/N=C2\CCS(=O)(=O)c3sccc32)cc1
IC50 [2]: > 50 µM (not active)
AC50 [1]: 0.311 µM (active)

CN(C)c1ccc(/C=N/NS(=O)(=O)c2ccc(Br)cc2)cc1
AC50 [1]: 33.5 µM (active)

CC(O)CNc1nc2ccccc2n1-c1ncnc2sc3c(c12)CCC3 (configuration not stated)
CC50 [5]: 29.6 µM (active)

CCOC(=O)c1cnc2c(Cl)ccc(Cl)c2c1O
IC50 [2]: 17.3 µM (not active)

CC(=O)c1ccc(NC(=O)N2CCN(c3ccc(C)cc3)C(C)C2)cc1 (configuration not stated)
AC50 [1]: 3.56 µM (active)

COc1ccc(CC(=O)N2CCN(c3ccc(C4=NNC(=O)CC4C)cc3)CC2)cc1 (configuration not stated)
EC50 [7]: > 112 µM (not active)
EC50 [8]: < 0.088 µM (active)
AC50 [9]: 8.91 µM (inconclusive)
AC50 [1]: 20.8 µM (active)

Cc1cc(NC(=O)c2ccc3c(c2)C(=O)N(CCC(C)C)C3=O)no1
IC50 [2]: 17.2 µM (not active)

COc1ccc(-n2nc3c(N4CCC(C(=O)NCC(C)c5ccccc5)CC4)nnc(C)c3c2C)cc1 (configuration not stated)
AC50 [10]: 30.2 µM (active)
AC50 [11]: 36.7 µM (active)
AC50 [12]: 3.25 µM (active)

CC1(C)CC(=O)C(C(C2=C(O)CC(C)(C)CC2=O)c2ccc(O)c([N+](=O)[O-])c2)=C(O)C1
IC50 [13]: 9.49 µM (active)

CC(C)CCNc1nc2c(c(=O)n(Cc3cccc(F)c3)c(=O)n2C)n1C
IC50 [2]: 44.7 µM (not active)

COc1ccccc1N=C(S)N(Cc1ccco1)Cc1cc2ccc(C)c(C)c2nc1O
EC50 [14]: 0.685 µM (active)
EC50 [15]: 0.717 µM (inconclusive)
EC50 [16]: 20.2 µM (inconclusive)
EC50 [17]: 0.525 µM (active)

Cc1nc2ccc(S(=O)(=O)NCC(=O)N(C)Cc3ccccc3)cc2s1
AC50 [1]: 1.05 µM (active)

COc1ccc(Nc2nc(N)c(C(=O)c3ccc(F)cc3)s2)cc1
EC50 [14]: 2.8 µM (inconclusive)
EC50 [15]: 2.89 µM (inconclusive)
EC50 [16]: 54.4 µM (inconclusive)
EC50 [17]: 37.5 µM (active)

COc1ccc(CC(=O)Nc2ccccc2N2CCCC2)cc1OC
AC50 [1]: 12.6 µM (active)

CC1(C)Nc2ccccc2N(CC(=O)N2CCCCC2)C1=O
AC50 [1]: 1.96 µM (active)

O=C(O)CN1C(=O)/C(=C\c2ccccc2OCc2ccc(Cl)cc2)SC1=S
IC50 [13]: 43.3 µM (active)

Oc1ccccc1/C=N/NC(=S)NC1CC2CC1C1C=CCC21 (configuration not stated)
CC50 [5]: 13.9 µM (active)

O=C(/C=C/Nc1ccc(Br)cc1F)c1ccccc1
EC50 [7]: 0.542 µM (active)
EC50 [18]: 4.27 µM (active)
EC50 [8]: 4.16 µM (active)
IC50 [19]: > 100 µM (inactive)
EC50 [20]: 9.38 µM (active)
AC50 [21]: 1.65 µM (active)

Nc1c(C(=O)O)sc2nc(-c3ccccc3)cc(-c3ccc(Cl)cc3)c12
IC50 [13]: 70.8 µM (active)
EC50 [3]: > 195 µM (not active)

O=C(Cc1cccs1)Nc1ccc(-c2nc3ccccc3[nH]2)cc1
EC50 [22]: 0.236 µM (active)
EC50 [23]: 1.51 µM (active)

Cc1cc(N)n2ncc(-c3ccccc3)c2n1
EC50 [23]: 0.137 µM (active)
AC50 [1]: 18.9 µM (active)

CC(C)(C)c1cc(-c2nnc(S)n2-c2ccccc2F)[nH]n1
AC50 [1]: 2.1 µM (active)

COc1cc(OC)cc(C(=O)c2c(C)c(C#N)c3ccccn23)c1
EC50 [18]: 2.6 µM (active)
EC50 [14]: 1.49 µM (active)
EC50 [15]: 2.54 µM (active)
EC50 [24]: 15 µM (active)
EC50 [20]: > 120 µM (not active)
EC50 [16]: 0.769 µM (active)
EC50 [17]: 1.46 µM (inconclusive)

COc1ccc2c(c1OC)C(=O)OC2c1c(O)n(Cc2ccc(F)cc2)c(=O)[nH]c1=O (configuration not stated)
IC50 [13]: 69.7 µM (active)

COc1ccc(-c2csc3ncnc(N4CCN(c5ccccc5OC)CC4)c23)cc1
CC50 [5]: > 40 µM (active)

CC1CCCC/C1=N\NC(=S)NCCc1ccccc1 (configuration not stated)
CC50 [5]: > 40 µM (active)
